Source: article PMC3713009 (PLoS ONE, 2013)
pIC50: −log10 of the molar value. Like-named read-outs stand apart in the source and are kept apart here.

What was measured:
HDAC3/NCOR1 complex = HDAC3/NCOR1 complex (Homo sapiens, UniProt O15379); assay: HDAC3 enzyme assay (fluorescent activity kit, HDAC3/NCOR1 complex); type: biochemical; settings: for inhibition at 10 µM: library screen, o-aminoanilides T1–T336 without purification, values read from Figure 7; for IC50 HDAC3 / pIC50: class I, means of at least three experiments;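 on all read-outs here: in vitro enzyme activity of HDAC3 complexed with NCOR1, fluorescence read at 360 nm excitation and 460 nm emission, inhibition relative to uninhibited control wells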
HDAC3/NCOR1 complex, sequence (O15379 whole entry): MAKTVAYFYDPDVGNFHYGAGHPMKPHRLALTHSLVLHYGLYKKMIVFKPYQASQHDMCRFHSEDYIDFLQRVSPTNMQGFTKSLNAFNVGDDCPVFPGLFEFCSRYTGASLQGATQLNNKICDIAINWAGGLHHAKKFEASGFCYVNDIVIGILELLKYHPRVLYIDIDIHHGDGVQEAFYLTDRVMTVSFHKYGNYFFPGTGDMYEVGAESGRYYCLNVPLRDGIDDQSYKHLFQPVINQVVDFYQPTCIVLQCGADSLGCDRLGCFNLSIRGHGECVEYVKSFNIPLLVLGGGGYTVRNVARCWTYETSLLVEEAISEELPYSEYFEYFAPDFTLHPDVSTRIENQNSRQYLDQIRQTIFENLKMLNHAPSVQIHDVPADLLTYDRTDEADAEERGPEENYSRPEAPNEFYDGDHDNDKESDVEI
HDAC3/NCOR1 complex, sequence (O75376 395-489 partner limits assumed): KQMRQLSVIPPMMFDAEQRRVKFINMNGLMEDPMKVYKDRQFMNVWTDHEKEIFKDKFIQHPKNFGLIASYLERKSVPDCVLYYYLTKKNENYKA
Method: Because HDAC3 forms a complex with NCOR1 in cells [45], we used HDAC3/NCOR1 complex in in vitro HDAC3 assay. […] Therefore, as a primary in vitro screening for HDAC3 selectivity, we used total HDACs from HeLa nuclear extracts, in which the combined deacetylase activity of HDAC1 and HDAC2 is much higher than the activity of HDAC3 [46]. Initially, o-aminoanilides T1–T336 (10 µM) and hydroxamates T337–T504 (1 µM) were tested for inhibitory activity against HDAC3. […] The fluorescence of the wells was measured on a fluorometric reader with excitation set at 360 nm and emission detection set at 460 nm, and the values of % inhibition were calculated from the fluorescence readings of inhibited wells relative to those of control wells. […] IC50 values were determined by regression analysis of the concentration/inhibition data.

[1] = molecular target: total HDACs from HeLa nuclear extracts; assay: Total HDACs enzyme assay (HeLa nuclear extracts); type: biochemical; settings: pure resynthesized compounds, means of at least three experiments
HDAC1 = molecular target: T1, HDAC1 (Homo sapiens, UniProt Q13547); assay: HDAC1 enzyme assay; type: biochemical; settings: class I; means of at least three experiments
T1 construct: purchased SignalChem Pharmaceuticals Inc. H83-30G
T1 sequence (Q13547 whole entry): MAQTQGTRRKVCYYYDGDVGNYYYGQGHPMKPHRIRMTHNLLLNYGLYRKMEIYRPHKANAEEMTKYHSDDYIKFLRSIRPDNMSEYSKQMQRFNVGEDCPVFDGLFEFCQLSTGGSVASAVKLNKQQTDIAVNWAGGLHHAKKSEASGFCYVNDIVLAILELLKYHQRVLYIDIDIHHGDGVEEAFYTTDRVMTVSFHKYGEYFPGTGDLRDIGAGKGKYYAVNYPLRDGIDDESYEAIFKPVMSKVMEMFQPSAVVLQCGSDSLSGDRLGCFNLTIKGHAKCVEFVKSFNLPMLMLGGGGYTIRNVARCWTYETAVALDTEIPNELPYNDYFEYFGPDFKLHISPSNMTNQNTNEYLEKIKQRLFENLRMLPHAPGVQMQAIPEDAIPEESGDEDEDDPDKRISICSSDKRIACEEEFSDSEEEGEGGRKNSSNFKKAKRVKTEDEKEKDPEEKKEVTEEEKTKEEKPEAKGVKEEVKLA
Method: (§1) The fluorescence of the wells was measured on a fluorometric reader with excitation set at 360 nm and emission detection set at 460 nm, and the values of % inhibition were calculated from the fluorescence readings of inhibited wells relative to those of control wells. […] IC50 values were determined by regression analysis of the concentration/inhibition data.

[2] = test system: acetylated NF-κB in HCT116 cells; assay: Western blot of acetylated NF-κB in HCT116 cells; type: cell-based, human; settings: 8 h treatment
Method: (§2) Since HDAC3 is known to catalyze the deacetylation of NF-κB [13]–[14], we initially examined the effects of the inhibitors on the acetylation levels of NF-κB in HCT116 cells.
(§3) Protein concentrations of the lysates were determined using a Bradford protein assay kit (Bio-Rad Laboratories); equivalent amounts of proteins from each lysate were resolved in AnykD SDS-polyacrylamide gels and then transferred onto nitrocellulose membranes (Bio-Rad Laboratories). After having been blocked for 30 min with Tris-buffered saline (TBS) containing 3% skimmed milk, the transblotted membranes were incubated overnight at 4°C with acetyl NF-κB antibody (CST) (1∶1000 dilution), NF-κB antibody (CST) (1∶1000 dilution), acetyl α-tubulin antibody (Sigma) (1∶2000 dilution), α-tubulin antibody (Sigma) (1∶2000 dilution), acetyl p53 antibody (CST) (1∶500 dilution) or p53 antibody (CALBIOCHEM) (1∶500 dilution) in TBS containing 3% skimmed milk. […] The immunoblots were visualized by enhanced chemiluminescence.

[3] = test system: acetylated p53 in HCT116 cells; assay: Western blot of acetylated p53 in HCT116 cells; type: cell-based, human; settings: 8 h treatment
Method: as §2, §3

[4] = test system: acetylated α-tubulin in HCT116 cells; assay: Western blot of acetylated α-tubulin in HCT116 cells; type: cell-based, human; settings: 8 h treatment
Method: as §2, §3

[5] = test system: colon cancer HCT116 cells; assay: Cell growth inhibition assay (MTT), HCT116; type: cell-based; settings: Homo sapiens, read-out: GI50 HCT116 (colon cancer)
Method: (§4) The solubilized dye was quantified by colorimetric reading at 570 nm. The absorbance values of control wells (C) and test wells (T) were measured. The absorbance of the test wells (T 0) was also measured at time 0 (addition of compounds). Using these measurements, cell growth inhibition (percentage of growth) by a test inhibitor at each concentration used was calculated as: % growth = 100×[(T – T 0)/(C – T 0)], when T>T 0 and % growth = 100× [(T – T 0)/T], when T<T 0.

[6] = test system: prostate cancer PC3 cells; assay: Cell growth inhibition assay (MTT), PC3; type: cell-based; settings: Homo sapiens, read-out: GI50 PC3 (prostate cancer)
Method: as §4

[7] = test system: OM10.1 cells latently infected with HIV-1; assay: Viral p24 antigen assay in latently HIV-1-infected OM10.1 cells; type: cell-based
Method: Figure 13 Induction of viral replication from OM10.1 cells latently infected with HIV-1. […] HIV-1 p24 antigen in the cell culture supernatant was measured using ELISA. Experiments were performed in triplicate, and the means ±S.D. are indicated. **P<0.01, *P<0.05; Student’s t test results indicated differences between DMSO and inhibitors.
The p24 antigen level in the cell culture supernatant was measured by p24 antigen capture ELISA assay using a commercial kit (RETRO-TEK HIV-1 p24 Antigen ELISA kit; Zepto Metrix, Buffalo, NY, USA) according to the method reported in ref [54].

HDAC8 = molecular target: T2, HDAC8 (Homo sapiens, UniProt Q9BY41); assay: HDAC8 enzyme assay; type: biochemical; settings: class I; means of at least three experiments
T2 construct: purchased Cyclex Company Limited CY-1158
T2 sequence (Q9BY41 1-377): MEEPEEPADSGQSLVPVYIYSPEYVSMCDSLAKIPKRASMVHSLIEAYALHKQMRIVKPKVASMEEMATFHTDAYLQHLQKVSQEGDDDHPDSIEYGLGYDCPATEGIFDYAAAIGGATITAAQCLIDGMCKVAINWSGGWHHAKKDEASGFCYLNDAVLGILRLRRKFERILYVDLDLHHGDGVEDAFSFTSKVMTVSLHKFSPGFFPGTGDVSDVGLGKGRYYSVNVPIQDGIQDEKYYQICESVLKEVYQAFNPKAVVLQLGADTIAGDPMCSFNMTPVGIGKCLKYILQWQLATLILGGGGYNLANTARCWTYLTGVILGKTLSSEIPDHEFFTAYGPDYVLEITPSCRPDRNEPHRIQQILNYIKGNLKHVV
Method: as §1

HDAC4 = molecular target: T3, HDAC4 (Homo sapiens, UniProt P56524); assay: HDAC4 enzyme assay; type: biochemical; settings: class IIa; means of at least three experiments
T3 construct: purchased BPS Bioscience Incorporated
T3 sequence (P56524 627-1084 limits assumed): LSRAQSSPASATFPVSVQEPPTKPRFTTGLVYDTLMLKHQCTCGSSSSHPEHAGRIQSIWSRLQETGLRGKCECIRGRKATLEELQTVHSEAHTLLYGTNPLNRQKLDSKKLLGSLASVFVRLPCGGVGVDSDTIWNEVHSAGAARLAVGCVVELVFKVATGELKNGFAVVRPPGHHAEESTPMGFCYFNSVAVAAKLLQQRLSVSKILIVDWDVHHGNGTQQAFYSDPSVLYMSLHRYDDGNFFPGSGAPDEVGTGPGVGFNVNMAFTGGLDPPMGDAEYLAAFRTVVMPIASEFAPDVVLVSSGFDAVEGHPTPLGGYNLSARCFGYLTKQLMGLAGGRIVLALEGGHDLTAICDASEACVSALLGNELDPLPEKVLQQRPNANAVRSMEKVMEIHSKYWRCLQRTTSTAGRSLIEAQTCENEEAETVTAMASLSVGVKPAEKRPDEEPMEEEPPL

HDAC6 = molecular target: T4, HDAC6 (Homo sapiens, UniProt Q9UBN7); assay: HDAC6 enzyme assay; type: biochemical; settings: class IIb; means of at least three experiments
T4 construct: purchased BIOMOL Research Laboratories SE-508
T4 sequence (Q9UBN7 1-1215): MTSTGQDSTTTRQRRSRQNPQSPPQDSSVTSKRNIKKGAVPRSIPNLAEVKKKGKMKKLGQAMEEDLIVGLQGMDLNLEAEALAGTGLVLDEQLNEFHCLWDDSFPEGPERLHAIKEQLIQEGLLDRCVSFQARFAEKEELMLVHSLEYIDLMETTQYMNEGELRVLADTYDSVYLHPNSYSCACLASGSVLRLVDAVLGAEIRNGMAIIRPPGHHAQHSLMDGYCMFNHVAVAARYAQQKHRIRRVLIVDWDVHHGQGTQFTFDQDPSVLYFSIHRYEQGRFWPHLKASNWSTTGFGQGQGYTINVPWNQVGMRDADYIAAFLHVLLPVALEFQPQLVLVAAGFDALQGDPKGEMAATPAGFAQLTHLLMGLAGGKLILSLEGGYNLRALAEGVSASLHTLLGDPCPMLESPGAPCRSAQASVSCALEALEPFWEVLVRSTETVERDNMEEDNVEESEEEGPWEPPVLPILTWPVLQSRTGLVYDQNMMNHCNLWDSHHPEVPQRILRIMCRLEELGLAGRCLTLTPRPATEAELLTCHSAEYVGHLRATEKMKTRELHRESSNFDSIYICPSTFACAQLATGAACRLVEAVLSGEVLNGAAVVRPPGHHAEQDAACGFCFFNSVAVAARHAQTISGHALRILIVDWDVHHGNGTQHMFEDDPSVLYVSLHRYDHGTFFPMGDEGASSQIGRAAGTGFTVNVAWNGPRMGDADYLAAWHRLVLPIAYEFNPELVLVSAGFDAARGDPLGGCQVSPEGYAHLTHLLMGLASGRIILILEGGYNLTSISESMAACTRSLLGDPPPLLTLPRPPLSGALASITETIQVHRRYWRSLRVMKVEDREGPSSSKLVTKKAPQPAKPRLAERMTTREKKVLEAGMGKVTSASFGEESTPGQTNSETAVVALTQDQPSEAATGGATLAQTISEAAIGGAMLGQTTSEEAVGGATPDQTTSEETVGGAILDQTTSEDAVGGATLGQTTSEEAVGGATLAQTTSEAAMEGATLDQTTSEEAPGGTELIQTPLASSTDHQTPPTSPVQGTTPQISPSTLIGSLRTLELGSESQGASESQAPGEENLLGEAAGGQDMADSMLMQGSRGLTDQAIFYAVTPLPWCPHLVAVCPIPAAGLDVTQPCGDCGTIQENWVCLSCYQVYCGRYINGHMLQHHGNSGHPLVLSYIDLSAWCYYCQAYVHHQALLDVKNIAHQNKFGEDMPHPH

[8] = 1 µM, means of two experiments, read-out: HDAC3 inhibition (%)
[9] = 3 µM, means of two experiments, read-out: HDAC3 inhibition (%)
[10] = HCT-116, 48 h exposure, MTT, means of at least three experiments
[11] = PC-3, 48 h exposure, MTT, means of at least three experiments
[12] = 48 h, 0.1, 1 and 10 µM, effect at 1 µM and/or 10 µM

Nc1ccccc1NC(=O)CCc1cn(Cc2cccc(-c3ccccc3)c2)nn1 [Compound T52]
HDAC3 inhibition (%) (HDAC3/NCOR1 complex; 1 µM, means of two experiments): 55%
HDAC3 inhibition (%) (HDAC3/NCOR1 complex; 3 µM, means of two experiments): 81%

Nc1ccccc1NC(=O)c1cccc(-c2cn(CC(=O)c3ccccc3)nn2)c1 [Compound T199]
HDAC3 inhibition (%) (HDAC3/NCOR1 complex; 1 µM, means of two experiments): 59%
HDAC3 inhibition (%) (HDAC3/NCOR1 complex; 3 µM, means of two experiments): 83%

Nc1ccccc1NC(=O)c1ccc(-c2cn(CCc3ccsc3)nn2)cc1 [Compound T247, N-(2-Aminophenyl)-4-[1-(2-thiophen-3-ylethyl)-1H-[1], [2], [3]triazol-4-yl]benzamide]
inhibition at 1 µM (HDAC3/NCOR1 complex; [8]): 89%
inhibition at 3 µM (HDAC3/NCOR1 complex; [9]): 95%
inhibition at 10 µM (HDAC3/NCOR1 complex): 93%
IC50 HDAC3 (HDAC3/NCOR1 complex): submicromolar
pIC50 [1]: < 4.00
pIC50 (HDAC1): 4.72
NF-κB acetylation [2]: dose-dependent increase of NF-κB acetylation
levels of acetylated p53 [3]: not elevated
acetylation of α-tubulin [4]: did not enhance the acetylation of α-tubulin
GI50 [5, 10]: 1.9 µM
GI50 [6, 11]: 1.4 µM
HIV-1 expression (p24 antigen in supernatant) [7, 12]: significantly stimulated HIV-1 expression

Nc1ccccc1NC(=O)c1ccc(-c2cn(Cc3cccc4ccccc34)nn2)cc1 [Compound T251]
HDAC3 inhibition (%) (HDAC3/NCOR1 complex; 1 µM, means of two experiments): 75%
HDAC3 inhibition (%) (HDAC3/NCOR1 complex; 3 µM, means of two experiments): 92%

Nc1ccccc1NC(=O)c1ccc(-c2cn(CCC3CCCCC3)nn2)cc1 [Compound T254]
HDAC3 inhibition (%) (HDAC3/NCOR1 complex; 1 µM, means of two experiments): 55%
HDAC3 inhibition (%) (HDAC3/NCOR1 complex; 3 µM, means of two experiments): 80%

Nc1ccccc1NC(=O)c1ccc(-c2cn(CCc3cccc(F)c3)nn2)cc1 [Compound T261]
HDAC3 inhibition (%) (HDAC3/NCOR1 complex; 1 µM, means of two experiments): 75%
HDAC3 inhibition (%) (HDAC3/NCOR1 complex; 3 µM, means of two experiments): 89%

Cc1ccccc1CCn1cc(-c2ccc(C(=O)Nc3ccccc3N)cc2)nn1 [Compound T263]
HDAC3 inhibition (%) (HDAC3/NCOR1 complex; 1 µM, means of two experiments): 74%
HDAC3 inhibition (%) (HDAC3/NCOR1 complex; 3 µM, means of two experiments): 91%

COc1ccccc1CCn1cc(-c2ccc(C(=O)Nc3ccccc3N)cc2)nn1 [Compound T266]
HDAC3 inhibition (%) (HDAC3/NCOR1 complex; 1 µM, means of two experiments): 73%
HDAC3 inhibition (%) (HDAC3/NCOR1 complex; 3 µM, means of two experiments): 91%

COc1cccc(CCn2cc(-c3ccc(C(=O)Nc4ccccc4N)cc3)nn2)c1 [Compound T267]
HDAC3 inhibition (%) (HDAC3/NCOR1 complex; 1 µM, means of two experiments): 80%
HDAC3 inhibition (%) (HDAC3/NCOR1 complex; 3 µM, means of two experiments): 92%

Nc1ccccc1NC(=O)c1ccc(-c2cn(CCc3ccc(F)cc3)nn2)s1 [Compound T318]
HDAC3 inhibition (%) (HDAC3/NCOR1 complex; 1 µM, means of two experiments): 77%
HDAC3 inhibition (%) (HDAC3/NCOR1 complex; 3 µM, means of two experiments): 91%

Nc1ccccc1NC(=O)c1ccc(-c2cn(CCc3cccc([N+](=O)[O-])c3)nn2)s1 [Compound T326, 5-{1-[2-(3-Nitrophenyl)ethyl]-1H-[1], [2], [3]triazol-4-yl}thiophene-2-carboxylic acid (2-aminophenyl)amide]
inhibition at 1 µM (HDAC3/NCOR1 complex; [8]): 86%
inhibition at 3 µM (HDAC3/NCOR1 complex; [9]): 95%
inhibition at 10 µM (HDAC3/NCOR1 complex): 98%
pIC50 (HDAC3/NCOR1 complex): 6.59
IC50 HDAC3 (HDAC3/NCOR1 complex): submicromolar
pIC50 [1]: < 4.00
pIC50 (HDAC1): < 4.00
pIC50 (HDAC8): < 4.00
pIC50 (HDAC4): < 4.00
pIC50 (HDAC6): < 4.00
NF-κB acetylation [2]: dose-dependent increase of NF-κB acetylation
levels of acetylated p53 [3]: not elevated
acetylation of α-tubulin [4]: did not enhance the acetylation of α-tubulin
GI50 [5, 10]: 0.94 µM
GI50 [6, 11]: 1 µM
HIV-1 expression (p24 antigen in supernatant) ([7]; 48 h, 10 µM): less active at 10 µM due to cytotoxicity
HIV-1 expression (p24 antigen in supernatant) [7, 12]: significantly stimulated HIV-1 expression

Cc1ccc(C(=O)NCC(=O)NCCC(=O)Nc2ccccc2N)cc1 [compound 1, reference compound]
inhibition at 1 µM (HDAC3/NCOR1 complex; [8]): 9%
inhibition at 3 µM (HDAC3/NCOR1 complex; [9]): 29%
inhibition at 10 µM (HDAC3/NCOR1 complex): 47%
pIC50 (HDAC3/NCOR1 complex): 4.72
pIC50 [1]: < 4.00
pIC50 (HDAC1): < 4.00
pIC50 (HDAC8): < 4.00
pIC50 (HDAC4): < 4.00
pIC50 (HDAC6): < 4.00
GI50 [5, 10]: 81 µM
GI50 [6, 11]: > 100 µM
HIV-1 expression (p24 antigen in supernatant) [7, 12]: did not show any activity

O=C(CCCCCCC(=O)Nc1ccccc1)NO [vorinostat (3), vorinostat, reference compound]
inhibition at 1 µM (HDAC3/NCOR1 complex; read-out: HDAC3 inhibition (%)): 83%
inhibition at 3 µM (HDAC3/NCOR1 complex; read-out: HDAC3 inhibition (%)): 93%
inhibition at 1 µM (HDAC3/NCOR1 complex; read-out: HDAC3 inhibition (%) at 1 µM): 98%
NF-κB acetylation [2]: induced non-selective acetylation of NF-κB and p53
levels of acetylated p53 [3]: induced non-selective acetylation of NF-κB and p53
GI50 ([5]; HCT-116, 48 h): 1.3 µM
GI50 ([6]; PC-3, 48 h): 1.6 µM
HIV-1 expression (p24 antigen in supernatant) [7, 12]: significantly stimulated HIV-1 expression
